Measurements: US11945806B2, “Stabilization of amyloidogenic immunoglobulin light chains” (The Scripps Research Institute, priority 2019, dated 2024)

Assays:
WIL-FL* [1] = target: T1, WIL-FL* (Homo sapiens, UniProt P01721, K101C, form not given); assay: PCFP assay with thermolysin; details: mean ± sd, n=3; 6.75 μM compound
WIL-FL* [2] = assay: FP artefact counterscreen (compounds added after 24 h of proteinase K treatment); format: biochemical, human; set-up: concentration or dose not given beside the values; details: compound added after 24 h PK treatment; mean ± sd, n=3
Experimental: Secondly, to remove compounds that interfere with the FP measurement, the primary screen was repeated in triplicate but compounds were added after 24 h of proteinase K treatment (FIG. 1f). […] Bona fide hits should retain no FP beyond the low control.

WIL-FL* [3] = target: T1, WIL-FL*; assay: Protease-coupled fluorescence polarization (PCFP) assay with proteinase K; details: for EC50: from dose response curves measured during the screening process; for PK activity (%): secondary screen, mean ± sd, n=3, 6.75 μM compound, FP retention after 24 h at 22° C., normalized to high and low controls
WIL-FL [4] = target: T2, WIL-FL (Homo sapiens, UniProt P01721); assay: PK proteolysis of unlabeled WIL-FL by SDS-PAGE; details: WIL-FL 10 μM, small molecule 100 μM, t=2 h
Experimental: The experiment in FIG. 1b measured simultaneous proteolysis of labeled and unlabeled LC by adding 20 nM WIL-FL* or JTO-FL* to 5 μM WIL-FL or JTO-FL, respectively. Fluorescein fluorescence images of the SDS-PAGE gels were recorded, after which the gels were Coomassie stained and imaged.

WIL-FL [5] = target: T2, WIL-FL; assay: Equilibrium unfolding, urea titration; format: biochemical; details: 1 at 100 μM or 5 at 50 μM, WIL-FL 5 μM; 1.4 M without ligand
Experimental: Equilibrium unfolding. WIL-FL (5 μM) was titrated against urea in 50 mM sodium phosphate buffer, pH 7.0, containing 50 μM 5 or 100 μM 1. After incubation overnight at 25° C., intrinsic tryptophan fluorescence emission spectra were measured using a Jasco 8600 fluorimeter (μex=280 nm, μem=300-420 nm). Average wavelength (also known as center of spectral mass) values were calculated using the equation: […]
λi and Ii are the are the wavelength and intensity at i, respectively. Average wavelength data were normalized for comparison. […] Midpoint urea concentrations were calculated by fitting the titration data to a 2-state unfolding equation: […]
x is the urea concentration (M), G is the free energy of unfolding (kJ mol^−1), m is the denaturant dependence of the unfolding reaction (kJ mol^−1 M^−1), R is the ideal gas constant, T is the temperature in K, a and c are the fluorescence of the folded and unfolded states, and b and d are the denaturant dependence of the fluorescence of the folded and unfolded states, respectively.

WIL-FL [6] = target: T2, WIL-FL; assay: Kinetic unfolding in urea; format: biochemical; details: 5 at 50 μM, WIL-FL 5 μM; 3.57 s^−1 for WIL-FL alone
Experimental: Kinetic unfolding. WIL-FL (5 μM) in 50 mM sodium phosphate buffer, pH 7.0, containing 50 μM 5 was rapidly diluted into urea in 50 mM sodium phosphate buffer and 50 μM 5 using an APP SX-20 stopped flow fluorimeter at 37° C. The change in fluorescence emission >335 nm was measured as a function of time (λex=280 nm). […] Kinetic transients were fitted to single exponential curves and rates extracted.

Row | Thermolysin activity (%) (WIL-FL* [1]) | Counterscreen activity (%) (WIL-FL* [2]) | EC50 (WIL-FL* [3]) [µM] | PK activity (%) (WIL-FL* [3]) | midpoint concentration of urea required to unfold the FL LC (WIL-FL [5]) [M] | unfolding rate constant (extrapolated to the absence of denaturant) (WIL-FL [6]) [s⁻¹] | Compound | protection of WIL-FL against PK proteolysis (WIL-FL [4])
1 | 40.4 ± 1.2 | −7.4 ± 4.0 | 6.33 | 48.9 ± 2.6 | – | – | CC(Oc1ccc(/C=C(\C#N)C(N)=O)cc1)c1ccccc1 (stereo not shown) [Compound 4] | –
2 | 50.8 ± 1.7 | −2.05 ± 2.9 | 7.36 | 48.0 ± 2.4 | – | – | CC(C)CC1NC(=O)N(CC(=O)Nc2ccc(C(F)(F)F)cc2)C1=O (racemic) [Compound 8] | –
3 | 27.1 ± 1.3 | −3.45 ± 3.89 | 7.9 | 37.9 ± 1.1 | – | – | CCN(CC)c1ccc2ccc(=O)oc2c1 [Compound 9] | stabilizes WIL-FL, but is less efficacious than 1
4 | 45.7 ± 7.0 | 0.94 ± 3.9 | 4.18 | 58.7 ± 2.0 | – | – | CCN(CC)c1ccc2c(C)c(I)c(=O)oc2c1 [Compound 11] | –
5 | 26.3 ± 1.7 | 2.51 ± 4.7 | 5.87 | 29.3 ± 2.5 | – | – | CC1CCCCC12NC(=O)N(CC(=O)Nc1ccc(C(F)(F)F)cc1)C2=O (stereo not shown) [Compound 7] | –
6 | 29.1 ± 0.3 | −3.09 ± 3.0 | 6.73 | 50.5 ± 5.3 | – | – | CN(C)c1ccc(C2OCC(Cl)([N+](=O)O)CO2)cc1 (stereo not shown) [Compound 16] | –
7 | 33.8 ± 3.1 | −4.13 ± 5.2 | 6.92 | 37.8 ± 1.4 | – | – | CCOC(=O)Cc1c(C)c2ccc(N(CC)CC)cc2oc1=O [Compound 2] | –
8 | 18.3 ± 4.9 | −4.35 ± 5.6 | 9.28 | 34.2 ± 3.0 | – | – | CC(Oc1ccc2ccc(=O)oc2c1)c1ccccc1 (stereo not shown) [Compound 15] | –
9 | 23.3 ± 8.5 | −4.10 ± 1.5 | 9.15 | 4.21 ± 4.4 | – | – | CCN(CC)c1ccc2c(CN3CCOCC3)cc(=O)oc2c1 [Compound 13] | –
10 | 61.1 ± 5.0 | 8.04 ± 2.6 | 5.51 | 65.2 ± 2.8 | 2.0 | 2.43 | Cc1cc(O)nc(N/N=C/C=C/c2ccccc2[N+](=O)[O-])n1 [Compound 5] | –
11 | 34.8 ± 3.1 | 1.67 ± 4.7 | 9.04 | 41.9 ± 3.0 | – | – | CCN(CC)c1ccc2c(C)c(CC(C)=O)c(=O)oc2c1 [Compound 14] | –
12 | 55.5 ± 3.3 | −1.54 ± 2.4 | 4 | 48.0 ± 3.8 | – | – | CCN(CC)c1ccc2c(C)c(Cl)c(=O)oc2c1 [Compound 10] | –
13 | 30.2 ± 4.2 | 0.41 ± 2.5 | 11.3 | 37.2 ± 7.3 | – | – | CCN(CC)c1ccc2c(C)c(CN3CCOCC3)c(=O)oc2c1 [Compound 12] | –
14 | 38.7 ± 3.7 | −2.52 ± 5.8 | – | 43.3 ± 1.5 | – | – | Cc1cc(=O)oc2cc(OC(C)c3ccccc3)ccc12 (stereo not shown) [Compound 3] | –
